Results as given in PMC8300687, “A Fine-Tuned Lipophilicity/Hydrophilicity Ratio Governs Antibacterial Potency and Selectivity of Bifurcated Halogen Bond-Forming NBTIs” (Antibiotics, 2021).
Converted amounts (≈) assume the structure as drawn. Like-named read-outs stand apart in the source and are kept apart here.

Experiments:
HUVEC = test: Metabolic activity assessment (cytotoxicity), HUVEC; format: cell-based; details: Homo sapiens, metabolic activity after 72 h treatment
Procedure: Cells of the HepG2 line (ATCC® HB-8065™) and HUVEC (ATCC® CRL-1730™) were cultured in Dulbecco’s Modified Eagle Medium (DMEM; Sigma-Aldrich, St. Louis, MO, USA) supplemented with 10% heat-deactivated FBS (Gibco, Grand Island, NE, USA), 2 mM L-glutamine, 100 U/mL penicillin, 100 μg/mL streptomycin (all from Sigma-Aldrich, St. Louis, MO, USA) in a humidified chamber at 37 °C and 5% CO2. The experiments were carried out on passages 7–9 for both cell lines. The tested compounds were dissolved in DMSO and further diluted in culture medium to a desired final concentration. Cells were seeded into 96-well plates at 8 × 10^4 cells/mL (100 μL/well) and incubated for 24 h to attach onto the wells. Cells were treated with 1 μM and 50 μM of each compound of interest or corresponding vehicle as control. […] The metabolic activity was assessed after 72 h treatment using the CellTiter 96 Aqueous One Solution Cell Proliferation Assay (Promega, Madison, WI, USA), in accordance with the manufacturer’s instructions. The absorbance was measured at 492 nm on an automated microplate reader BioTek Synergy HT (BioTek Instruments, Inc., Winooski, VT, USA). Data are presented as the percentage of metabolic activity of control cells stimulated with vehicle or as IC50 value (mean ± SD) from two independent experiments, each conducted in duplicate or triplicate. IC50 values were calculated by a non-linear regression model using Graph Pad Prism 7 software.

S. aureus Topo IV = target: T1, S. aureus Topo IV (Staphylococcus aureus, UniProt Q2FYS4); test: biochemical; details: for IC50: mean of two to four measurements, read-out: Topoisomerase IV IC50 S. aureus
T1 construct: purchased Inspiralis (Norwich, UK)
T1 sequence (Q2FYS5 whole entry): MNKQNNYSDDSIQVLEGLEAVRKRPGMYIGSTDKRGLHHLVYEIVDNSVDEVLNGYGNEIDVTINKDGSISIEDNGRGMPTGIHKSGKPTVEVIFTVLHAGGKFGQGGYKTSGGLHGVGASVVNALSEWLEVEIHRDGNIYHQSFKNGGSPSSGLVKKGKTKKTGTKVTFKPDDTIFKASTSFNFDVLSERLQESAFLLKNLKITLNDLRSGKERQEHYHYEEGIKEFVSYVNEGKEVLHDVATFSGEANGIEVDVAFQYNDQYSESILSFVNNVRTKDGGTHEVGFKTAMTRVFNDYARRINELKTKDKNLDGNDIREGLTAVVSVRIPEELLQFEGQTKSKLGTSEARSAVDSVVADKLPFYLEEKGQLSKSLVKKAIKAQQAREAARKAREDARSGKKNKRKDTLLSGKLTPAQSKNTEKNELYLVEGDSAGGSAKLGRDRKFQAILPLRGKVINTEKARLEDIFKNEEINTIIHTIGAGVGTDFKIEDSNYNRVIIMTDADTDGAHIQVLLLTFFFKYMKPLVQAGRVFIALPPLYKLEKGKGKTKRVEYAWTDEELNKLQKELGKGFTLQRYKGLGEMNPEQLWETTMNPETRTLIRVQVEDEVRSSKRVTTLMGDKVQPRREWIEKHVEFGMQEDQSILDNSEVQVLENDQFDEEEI
T1 sequence (Q2FYS4 whole entry): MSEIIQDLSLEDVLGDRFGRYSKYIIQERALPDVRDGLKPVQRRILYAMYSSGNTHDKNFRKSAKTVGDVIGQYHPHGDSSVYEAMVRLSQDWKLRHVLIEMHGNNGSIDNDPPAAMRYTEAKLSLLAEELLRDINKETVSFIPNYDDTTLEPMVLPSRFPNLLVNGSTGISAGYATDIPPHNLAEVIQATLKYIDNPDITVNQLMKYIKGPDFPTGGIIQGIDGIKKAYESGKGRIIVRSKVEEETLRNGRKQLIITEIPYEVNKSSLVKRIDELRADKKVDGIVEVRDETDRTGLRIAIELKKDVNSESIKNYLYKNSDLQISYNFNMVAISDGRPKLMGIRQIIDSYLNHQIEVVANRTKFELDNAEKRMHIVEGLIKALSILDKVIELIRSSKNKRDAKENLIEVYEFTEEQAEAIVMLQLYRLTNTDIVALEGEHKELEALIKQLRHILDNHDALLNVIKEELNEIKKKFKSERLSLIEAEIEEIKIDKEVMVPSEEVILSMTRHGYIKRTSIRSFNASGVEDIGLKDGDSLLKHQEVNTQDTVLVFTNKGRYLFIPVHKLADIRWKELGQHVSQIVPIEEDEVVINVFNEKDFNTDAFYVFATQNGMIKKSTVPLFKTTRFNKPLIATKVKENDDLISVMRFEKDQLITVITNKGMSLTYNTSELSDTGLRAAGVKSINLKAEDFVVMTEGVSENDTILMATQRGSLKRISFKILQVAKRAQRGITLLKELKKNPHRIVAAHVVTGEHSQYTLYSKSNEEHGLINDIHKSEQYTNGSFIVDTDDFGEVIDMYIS
Procedure: A Topo IV Relaxation High Throughput Plate assay kit, purchased from Inspiralis (Norwich. UK) was used to determine IC50 values of compounds on S. aureus and E. coli. […] Biotinylated oligonucleotide in wash buffer was immobilized onto the wells, and the excess oligonucleotide was washed off with wash buffer and ultrapure water. 1.5 U of S. aureus or E. coli […] enzyme was incubated together with 0.75 μg of supercoiled pNO1 plasmid as a substrate in the presence of 3 μL inhibitor solution in 10% DMSO and 0.008% Tween 20 at 37 °C for 30 min in a final reaction volume of 30 μL in dilution buffer (50 mM Tris-HCl (pH 7.5), 1 mM DTT, 1 mM EDTA, 40% (w/v) glycerol for S. aureus and 40 mM HEPES, KOH (pH 7.6), 100 mM potassium glutamate, 1 mM DTT, 1 mM EDTA, and 40% (v/v) glycerol for E. coli). The reactions were stopped by adding the TF buffer (50 mM NaOAc (pH 4.7), 50 mM NaCl, and 50 mM MgCl2) to allow the triplex formation (biotin-oligonucleotide-plasmid) for additional 30 min. Afterward, the unbound plasmid was washed off using TF buffer, and the solution of Promega Diamond dye in T10 buffer (10 mM Tris-HCl (pH 8.0), 1 mM EDTA) was added. […] IC50 value represents the mean of two to four independent measurements.

[1] = tested on: P. aeruginosa RDK 184 (DSM 939); test: MIC broth microdilution, P. aeruginosa; format: cell-based; details: Pseudomonas aeruginosa, DSM939; read-out: MIC P. aeruginosa RDK 184 (DSM 939)
Procedure: (§1) Antimicrobial testing was carried out by the broth microdilution method in 96-well plate format following the Clinical and Laboratory Standards Institute (CLSI) guidelines and European Committee on Antimicrobial Susceptibility Testing (EUCAST) recommendations. Bacterial suspension of specific bacterial strain equivalent to 0.5 McFarland turbidity standard was diluted with cation-adjusted Mueller Hinton broth with TES (Thermo Fisher Diagnostic, Landsmeer, The Netherlands), to obtain a final inoculum of 10^5 CFU/mL. Compounds dissolved in DMSO and inoculum were mixed together and incubated for 18–20 h at 35 °C. Suspensions of Mycobacterium sp. were prepared into a tube of Middelbrook 7H9 broth supplemented with 5% OADC (Thermo Scientific, Trek Diagnostic Systems, West Sussex, UK) and incubated for at least 10 days. After incubation the minimal inhibitory concentration (MIC) values were determined by visual inspection as the lowest dilution of compounds showing no turbidity. Tetracycline was used as a positive control on every assay plate.

E. coli (QA-11.3) = test: MIC broth microdilution, E. coli QA-11.3; format: cell-based; details: Escherichia coli, 20 h; read-out: MIC E. coli (QA-11.3)
Procedure: as §1

E. coli N43 (CGSC# 5583) = test: MIC broth microdilution, E. coli N43; format: cell-based; details: Escherichia coli
In short: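 For the mycobacterial strain, suspensions in Middelbrook 7H9 broth with 5% OADC were incubated no less than 10 days. Other strains: cation-adjusted Mueller Hinton/TES broth, 10^5 CFU/mL final, 35 °C for 18–20 h. Endpoint: no turbidity by visual inspection; tetracycline served as plate control.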

E. coli D22 = test: MIC broth microdilution, E. coli D22; format: cell-based; details: Escherichia coli, D22; mutation in the lpxC gene that increases membrane permeability; read-out: MIC E. coli D22
Procedure: as §1

S. pneumoniae (QA-10/02) = test: MIC broth microdilution, S. pneumoniae; format: cell-based; details: Streptococcus pneumoniae
Procedure: as §1

[2] = tested on: S. alachua RDK 030c (QA-1482/04); test: MIC broth microdilution, S. alachua; format: cell-based; details: Salmonella; read-out: MIC S. alachua RDK 030c (QA-1482/04)
Procedure: as §1

in vitro = details: PAMPA
In short: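 Pre-coated three-layer PAMPA plate; donor in bottom well, pH 7.4 PBS acceptor on top, 4 h at 37 °C. Donor and acceptor quantified by isocratic HPLC peak areas, 100-fold diluted initial donor as external reference; permeability calculated from peak areas corrected for dilution and injection volume.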

MRSA (QA-11.6) = test: MIC broth microdilution, MRSA QA-11.6; format: cell-based, methicillin-resistant S. aureus; details: Staphylococcus aureus, resistant to cefoxitin, gentamicin, sulfamethoxazole, tetracycline, read-out: MIC MRSA (QA-11.6)
Procedure: as §1

M. avium = test: MIC, M. avium; format: cell-based; details: Mycobacterium avium; read-out: MIC M. avium
Procedure: as §1

S. aureus (ATCC 29213) = test: MIC broth microdilution, S. aureus ATCC 29213; format: cell-based; details: Staphylococcus aureus, ATCC29213
Procedure: as §1

[3] = read-out: E. coli N43 MIC in molar
[4] = read-out: MIC E. coli N43 (CGSC# 5583)
[5] = S. aureus ATCC 29213, read-out: S. aureus MIC (converted)
[6] = read-out: MIC S. aureus (ATCC 29213)

Row | SMILES | IC50 (HUVEC) [µM] | LE Topo IV S. aureus (S. aureus Topo IV; LE = (1.37/HA) × pIC50) | IC50 (S. aureus Topo IV) [µM] | MIC [1] [µg/mL] | MIC (E. coli (QA-11.3)) [µg/mL] | MIC (E. coli N43 (CGSC# 5583); [3]) [µM] | MIC (E. coli N43 (CGSC# 5583); [4]) [µg/mL] | MIC (E. coli D22) [µg/mL] | MIC (S. pneumoniae (QA-10/02)) [µg/mL] | MIC [2] [µg/mL] | Papp at 4 h (in vitro) [×10⁻⁶ cm/s] | Papp at 4 h (in vitro; pH 7.4) [×10⁻⁶ cm/s] | MIC (MRSA (QA-11.6)) [µg/mL] | MIC (M. avium) [µg/mL] | MIC (S. aureus (ATCC 29213); [5]) [µM] | MIC (S. aureus (ATCC 29213); [6]) [µg/mL]
1 | COc1ccc2nccc(CCN3CCC(NCc4ccc(C(F)(F)F)nc4)CC3)c2n1 [Compound 21, 1-(2-(6-Methoxy-1,5-naphthyridin-4-yl)ethyl)-N-((6-(trifluoromethyl)pyridin-3-yl)methyl)piperidin-4-amine] | > 50 | 0.20 | 18.5 ± 1.32 | > 128 | 8 (≈ 18 µM) | 2.25 | 1 | 4 (≈ 8.98 µM) | 1 (≈ 2.24 µM) | 128 (≈ 287 µM) | > 2.7 | 8.3 | 0.5 (≈ 1.12 µM) | 4 (≈ 8.98 µM) | 0.56 | 0.25
2 | COc1ccc(CNC2CCN(CCc3ccnc4ccc(OC)nc34)CC2)cn1 [Compound 22, 1-(2-(6-Methoxy-1,5-naphthyridin-4-yl)ethyl)-N-((6-methoxypyridin-3-yl)methyl)piperidin-4-amine] | > 50 | – | > 100 | > 128 | 4 (≈ 9.82 µM) | 2.38 | 1 | 4 (≈ 9.82 µM) | 1 (≈ 2.45 µM) | 64 (≈ 157 µM) | > 2.7 | 8.2 | 2 (≈ 4.91 µM) | > 128 | 1.19 | 0.5
